Reference: article PMC2919490 (Journal of agricultural and food chemistry, 2010)
Read-outs that look alike come from different tables or passages of the source.

Experiments:
Caco-2 cells [1] = conditions: cited from earlier work
[2] = type: in vitro ADME, human; conditions: human, Caco-2, pH 6.8, efflux ratio (Pba/Pab), vectorial transport ratio
Caco-2 cell monolayer = type: in vitro ADME, human; conditions: for Pa-b as percent of control: pH 6.8, 37 °C
SGLT1 = test: Caco-2 transport of isoquercitrin in the presence of phloridzin; type: in vitro ADME, human; conditions: pure isoquercitrin 10 μM, 50 μM phloridzin
MRP2 = MRP2 (Homo sapiens, UniProt Q92887); test: Caco-2 transport of isoquercitrin in the presence of MRP2 inhibitor MK 571; type: in vitro ADME
Chain of MRP2 (Q92887 whole entry): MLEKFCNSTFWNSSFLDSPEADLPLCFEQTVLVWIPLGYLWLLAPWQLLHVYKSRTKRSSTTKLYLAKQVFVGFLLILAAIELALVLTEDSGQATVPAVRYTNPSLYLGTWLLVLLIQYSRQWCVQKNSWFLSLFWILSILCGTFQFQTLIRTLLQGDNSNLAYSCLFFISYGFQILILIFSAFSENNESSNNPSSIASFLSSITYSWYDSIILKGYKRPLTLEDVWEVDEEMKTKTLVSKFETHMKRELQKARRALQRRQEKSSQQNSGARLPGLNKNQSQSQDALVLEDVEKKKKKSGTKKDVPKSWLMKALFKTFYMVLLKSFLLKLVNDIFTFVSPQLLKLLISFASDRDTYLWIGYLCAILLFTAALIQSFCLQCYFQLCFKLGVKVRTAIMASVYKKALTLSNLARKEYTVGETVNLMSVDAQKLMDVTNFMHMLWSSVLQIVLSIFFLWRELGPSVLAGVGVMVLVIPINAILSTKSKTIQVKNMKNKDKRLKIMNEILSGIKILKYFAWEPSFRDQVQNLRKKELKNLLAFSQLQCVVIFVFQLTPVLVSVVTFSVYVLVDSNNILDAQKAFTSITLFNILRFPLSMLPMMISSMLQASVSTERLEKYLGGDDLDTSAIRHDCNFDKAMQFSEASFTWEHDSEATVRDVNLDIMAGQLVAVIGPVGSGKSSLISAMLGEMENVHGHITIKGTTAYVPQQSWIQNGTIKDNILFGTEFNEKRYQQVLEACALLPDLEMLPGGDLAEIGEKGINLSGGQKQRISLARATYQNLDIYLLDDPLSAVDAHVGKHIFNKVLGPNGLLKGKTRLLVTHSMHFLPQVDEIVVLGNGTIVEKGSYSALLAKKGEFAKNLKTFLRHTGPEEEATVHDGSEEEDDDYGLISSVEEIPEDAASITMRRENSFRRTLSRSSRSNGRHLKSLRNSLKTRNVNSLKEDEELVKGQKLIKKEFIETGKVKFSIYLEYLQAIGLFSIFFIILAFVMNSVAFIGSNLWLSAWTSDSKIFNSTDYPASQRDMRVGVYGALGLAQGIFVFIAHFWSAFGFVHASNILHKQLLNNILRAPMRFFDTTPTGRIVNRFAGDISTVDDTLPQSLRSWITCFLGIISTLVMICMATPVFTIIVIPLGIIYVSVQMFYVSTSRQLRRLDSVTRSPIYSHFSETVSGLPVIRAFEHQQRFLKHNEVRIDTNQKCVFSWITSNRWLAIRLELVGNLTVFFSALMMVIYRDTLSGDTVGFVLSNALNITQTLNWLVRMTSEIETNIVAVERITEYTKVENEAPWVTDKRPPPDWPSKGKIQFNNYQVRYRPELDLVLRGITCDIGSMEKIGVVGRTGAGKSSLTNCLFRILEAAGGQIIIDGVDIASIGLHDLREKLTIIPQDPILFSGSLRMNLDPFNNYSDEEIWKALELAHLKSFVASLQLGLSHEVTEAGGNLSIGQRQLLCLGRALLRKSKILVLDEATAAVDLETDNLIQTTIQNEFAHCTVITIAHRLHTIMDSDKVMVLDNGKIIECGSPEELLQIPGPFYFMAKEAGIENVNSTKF

Caco-2 cells [3] = test: Marker compounds hydrolysis and metabolism in Caco-2 transport study; type: in vitro ADME, human; conditions: Caco-2 transport studies; for glucuronidation and sulfation metabolites: UPLC-MS/MS, of marker compounds and their aglycone; for hydrolysis to aglycone: aglycone by UPLC-MS/MS
[4] = Stability of transport study solutions in HBSS at 37 °C; type: physicochemical; conditions: HBSS pH 6.8, 37 °C water bath, 0, 1, 2, 4 and 6 hour, UPLC-MS/MS
[5] = especially under light exposure; cited from earlier work
[6] = in product 1 matrix, control pure compound 10 μM
[7] = in product 2 matrix, control pure compound 10 μM
[8] = isoquercitrin in product 2, 50 μM MK 571
[9] = isoquercitrin in product 4, 50 μM MK 571
[10] = pure isoquercitrin 10 μM, 50 μM MK 571 at apical side

## C[C@@H]1O[C@@H](O[C@H]2[C@H](Oc3cc(O)c4c(c3)O[C@H](c3ccc(O)cc3)CC4=O)O[C@H](CO)[C@@H](O)[C@@H]2O)[C@H](O)[C@H](O)[C@H]1O [naringin]
Caco-2 cells [1]; Caco-2
  permeability: 8e-08 cm/s
  permeability (words): not permeable

## O=c1c(O[C@@H]2O[C@H](CO)[C@@H](O)[C@H](O)[C@H]2O)c(-c2ccc(O)c(O)c2)oc2cc(O)cc(O)c12 [isoquercitrin]
[2]
  efflux ratio at 4 h, 10 µM: 7.13
Caco-2 cell monolayer; [6]
  Pb-a as percent of control: 78%
Caco-2 cell monolayer; [7]
  Pb-a as percent of control: 42%
SGLT1
  Pa-b increase compared to the control: 2.9 times
  difference between Pa-b and Pb-a: diminished
MRP2; human, Caco-2, with MK 571, 50 µM
  efflux ratio at 4 h: 0.4
MRP2; [8]
  Pa-b change with MK 571: didn't increase significantly
  Pb-a reduction with MK 571: 1.8 times
MRP2; [9]
  Pa-b increase with MK 571: 2.9 times
  Pb-a change with MK 571: didn't change
  Pb-a versus Pa-b: not statistically different
MRP2; pure isoquercitrin 10 μM, 50 μM MK 571
  vectorial transport ratio: 1
MRP2; [10]
  Pa-b increase compared with control: 3.2 times
  Pb-a decrease compared with control: 5.2 times
Caco-2 cells [3]
  glucuronidation and sulfation metabolites: not detected
  hydrolysis to aglycone: not hydrolyzed
[4]
  stability in experimental solutions (relative peak area as a function of time): stable

## C[C@@H]1O[C@@H](OC[C@H]2O[C@@H](Oc3c(-c4ccc(O)c(O)c4)oc4cc(O)cc(O)c4c3=O)[C@H](O)[C@@H](O)[C@@H]2O)[C@H](O)[C@H](O)[C@H]1O [rutin]
Caco-2 cells [3]
  glucuronidation and sulfation metabolites: not detected
  hydrolysis to aglycone: not hydrolyzed

## Cc1cc(O)c2c(=O)c3c(O)cc(O)c4c5c(O)cc(O)c6c(=O)c7c(O)cc(C)c8c1c2c(c34)c(c78)c65 [hypericin]
[5]
  stability in aqueous solutions: highly unstable

## COc1ccc([C@@H]2CC(=O)c3c(O)cc(O[C@@H]4O[C@H](CO[C@@H]5O[C@@H](C)[C@H](O)[C@@H](O)[C@H]5O)[C@@H](O)[C@H](O)[C@H]4O)cc3O2)cc1O [hesperidin]
Caco-2 cells [1]; HPLC-UV, 120 min transport
  permeability (words): not permeable

## O=c1c(O[C@@H]2O[C@H](CO)[C@H](O)[C@H](O)[C@H]2O)c(-c2ccc(O)c(O)c2)oc2cc(O)cc(O)c12 [hyperoside]
Caco-2 cell monolayer; [6]
  Pa-b compared with control: not altered
Caco-2 cell monolayer; [7]
  Pa-b as percent of control: 54%
Caco-2 cell monolayer; in product 4 matrix, control pure compound 10 μM
  Pa-b as percent of control: 46%
Caco-2 cells [3]
  glucuronidation and sulfation metabolites: not detected
  hydrolysis to aglycone: not hydrolyzed
[4]
  stability in experimental solutions (relative peak area as a function of time): stable

## C[C@H]1O[C@H](OC[C@H]2O[C@@H](Oc3c(-c4ccc(O)cc4)oc4cc(O)cc(O)c4c3=O)[C@H](O)[C@@H](O)[C@@H]2O)[C@@H](O)[C@@H](O)[C@@H]1O [kaempferol-3-rutinoside]
Caco-2 cell monolayer; Caco-2, pH 6.8
  efflux ratio (Pba/Pab): 3.5
Caco-2 cell monolayer; human, Caco-2, 4 h, 50 µM, pH 6.8
  vectorial transport ratio: 0.16
